Results on 28 compounds are retold here after PMC3508077 (Bioorganic & medicinal chemistry, 2012).

In general, IC50 refers to the point on the concentration scale where inhibition reaches its midpoint.

Each structure is given as a SMILES string.

Assay [1] deals with NAD(P)H:quinone reductase 1 (QR1). The assay can be described thus: cells. To be noted: Mus musculus, 48 h, read-out: CD (concentration that doubles the activity).
Assay [2] shares this test system. To be noted: cited from earlier work.
In assay [3] the target is T1, human aromatase (CYP19 enzyme) (Homo sapiens, UniProt P11511).
T1 sequence (P11511 1-503): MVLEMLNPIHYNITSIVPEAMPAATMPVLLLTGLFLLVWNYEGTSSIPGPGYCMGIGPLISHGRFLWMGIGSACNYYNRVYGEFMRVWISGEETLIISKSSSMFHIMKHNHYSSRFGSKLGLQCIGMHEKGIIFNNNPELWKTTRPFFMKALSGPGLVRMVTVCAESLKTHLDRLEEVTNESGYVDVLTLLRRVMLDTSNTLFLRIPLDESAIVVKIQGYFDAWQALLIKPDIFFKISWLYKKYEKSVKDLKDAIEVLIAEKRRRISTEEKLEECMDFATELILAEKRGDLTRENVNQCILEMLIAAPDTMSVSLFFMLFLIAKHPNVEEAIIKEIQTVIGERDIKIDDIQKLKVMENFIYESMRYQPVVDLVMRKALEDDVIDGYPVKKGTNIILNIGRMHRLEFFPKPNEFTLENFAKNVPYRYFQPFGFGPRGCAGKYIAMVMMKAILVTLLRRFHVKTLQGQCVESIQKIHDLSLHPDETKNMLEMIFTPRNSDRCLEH
The settings on record: read-out: Aromatase IC50.

Assay [4] relates to NF-κB. To be noted: cited from earlier work.
In assay [5] the target is T1, human aromatase (CYP19 enzyme). To be noted: cited from earlier work.
The subject of assay [6] is NAD(P)H:quinone reductase 1 (QR1). The settings on record: for Inducer class (monofunctional / bifunctional): from QR1 induction in Taoc1BP^rc1 and BP^rc1 mutants; for QR1 induction activity in the mutant cell lines (in words): Taoc1BP^rc1 and BP^rc1 mutant cell lines.
For assay [7] the test system is unchanged. Nature of the assay: QR1 induction assay in Hepa 1c1c7 murine hepatoma cells. It is filed as cell-based. The settings on record: Hepa 1c1c7 cells.
Assay [8] has as its system inducible nitric oxide synthase (iNOS).
Assay [9] relates to NF-κB.

Take `Cc1c(Cl)cccc1-c1nc(-c2ccccc2)cs1` [Compound 9f, 2-(3-Chloro-2-methylphenyl)-4-phenylthiazole]: the EC (2-fold QR1 activity) in [1] is > 50 µM. Turning to `COc1cccc(-c2csc(-c3ccc(C)cc3Br)n2)c1` [Compound 9t, 2-(2-Bromo-4-methylphenyl)-4-(3-methoxyphenyl)thiazole], the EC (2-fold QR1 activity) in [1] was > 50 µM. The same measure, in the same setting: for `COc1cccc(-c2noc(-c3cccc(OC)c3)n2)c1` [Compound 15] the value was > 50 µM. For `c1ccc(-c2nsc(-c3ccccc3)n2)cc1` [Compound 2, 3,5-Diphenyl-1,2,4-thiadiazole], the “CD value compared with resveratrol (times lower)” value in assay [2] is 10 times. Also, the IC50 in assay [3] worked out at 32.7 ± 3.8 µM. The EC (2-fold QR1 activity) in [1] was > 50 µM. The “Activity as an inhibitor of NF-κB (in words)” value in the assay with NF-κB [4] was “weak”. Besides, in assay [5], the “Activity as an aromatase inhibitor (in words)” value is “weak”. On to `Brc1cccc(-c2nc(-c3ccccc3)cs2)c1` [Compound 9d, 2-(3-Bromophenyl)-4-phenylthiazole], for which, in assay [1], the EC (2-fold QR1 activity) was > 50 µM. Take `COc1cccc(-c2csc(-c3cc(Cl)ccc3C)n2)c1` [Compound 9u, 2-(5-Chloro-2-methylphenyl)-4-(3-methoxyphenyl)thiazole]: the “Inducer class (monofunctional / bifunctional)” value in assay [6] is on record as “monofunctional”. Take `CCCCc1ccc(-c2nc(-c3ccccc3)cs2)cc1` [Compound 9m, 2-(4-n-Butylphenyl)-4-phenylthiazole]: in [1], the EC (2-fold QR1 activity) was > 50 µM. For the compound `Clc1cccc(-c2nc(-c3ccccc3)cs2)c1Cl` [Compound 9c, 2-(2,3-Dichlorophenyl)-4-phenylthiazole], the “QR1 induction activity in the mutant cell lines (in words)” value in assay [6] is recorded as “active”. As to `COc1cccc(-c2csc(-c3cc(OC)ccc3F)n2)c1` [Compound 13b, 2-(2-Fluoro-5-methoxyphenyl)-4-(3-methoxyphenyl)thiazole], in assay [1], the EC (2-fold QR1 activity) is > 50 µM. For the same compound, the “QR1 induction activity (in words)” value in assay [7] is “inactive”.

As for `COc1cccc(-c2nsc(-c3cccc(OC)c3)n2)c1` [Compound 16], in [1], the EC (2-fold QR1 activity) is > 50 µM. The same measure, in the same setting: to `Cc1ccc(-c2nc(-c3ccccc3)cs2)c(Br)c1` [Compound 9l, 2-(2-Bromo-4-methylphenyl)-4-phenylthiazole] belongs > 50 µM.

Consider `Fc1ccccc1-c1nsc(-c2ccccc2F)n1` [Compound 3, 3,5-bis(2-fluorophenyl)-1,2,4-thiadiazole], for which, in assay [2], the “CD (concentration that doubles QR1 activity)” value is 1.8 µM and the “IR (QR1 induction ratio)” value was 10.5. Moreover, in assay [1], the EC (2-fold QR1 activity) amounted to 29.4 ± 1.3 µM. For the compound `Cc1ccc(Cl)cc1-c1nc(-c2ccccc2)cs1` [Compound 9h, 2-(5-Chloro-2-methylphenyl)-4-phenylthiazole], the “Inducer class (monofunctional / bifunctional)” value in assay [6] was “monofunctional”.

On to `COc1cccc(-c2csc(-c3cccc(F)c3F)n2)c1` [Compound 9r, 2-(2,3-Difluorophenyl)-4-(3-methoxyphenyl)thiazole], for which the EC (2-fold QR1 activity) in assay [1] is > 50 µM. Still for that read-out and setting: to `COc1cccc(-c2csc(-c3cccc(Cl)c3C)n2)c1` [Compound 9p, 2-(3-Chloro-2-methylphenyl)-4-(3-methoxyphenyl)thiazole] belongs > 50 µM. As for `COc1cccc(-c2csc(-c3ccccc3)n2)c1` [Compound 9n, 4-(3-Methoxyphenyl)-2-phenylthiazole], in assay [6], the “QR1 induction activity in the mutant cell lines (in words)” value is “not active”. The “Inhibitory activity vs. iNOS (in words)” value in [8] is given as “weak”. Moreover, the “NF-κB inhibitory activity (in words)” value in the assay with NF-κB [9] is on record as “weak”. `COc1cccc(-c2csc(-c3cccc(Cl)c3Cl)n2)c1` [Compound 9q, 2-(2,3-Dichlorophenyl)-4-(3-methoxyphenyl)thiazole]: in [6], the “QR1 induction activity in the mutant cell lines (in words)” value was “did not display activity”. The EC (2-fold QR1 activity) in assay [1] was > 50 µM. Turning to `Fc1ccccc1-c1nsc(-c2ccccc2)n1` [Compound 6b, 3-(2-Fluorophenyl)-5-phenyl-1,2,4-thiadiazole], in [1], the EC (2-fold QR1 activity) is > 50 µM. As to `O=c1cc(-c2ccc(Br)cc2)oc2ccccc12` [4′-Bromoflavone, reference compound], the “Inducer class (monofunctional / bifunctional)” value in assay [6] is listed as “bifunctional”. Consider `CCCCc1ccc(-c2nc(-c3cccc(OC)c3)cs2)cc1` [Compound 9v, 2-(4-n-Butylphenyl)-4-(3-methoxyphenyl)thiazole], for which the EC (2-fold QR1 activity) in [1] was > 50 µM. As to `FC(F)(F)c1ccccc1-c1nc(-c2ccccc2)cs1` [Compound 9a, 4-Phenyl-2-[2-(trifluoromethyl)phenyl]thiazole], the EC (2-fold QR1 activity) in assay [1] was > 50 µM. The “QR1 induction activity (in words)” value in assay [7] is “inactive”. With `COc1cccc(-c2csc(-c3cccc(OC)c3)n2)c1` [Compound 9o], the “QR1 induction activity in the mutant cell lines (in words)” value in [6] is on record as “not active”. In assay [7], the “CD value compared with that of resveratrol (times better)” value amounted to 241 times. Also, in the assay on NF-κB [9], the “NF-κB inhibitory activity (in words)” value is recorded as “weak”. As to `Clc1cccc(Cl)c1-c1nc(-c2ccccc2)cs1` [Compound 9i, 2-(2,6-Dichlorophenyl)-4-phenylthiazole], the EC (2-fold QR1 activity) in [1] was > 50 µM. `COc1cccc(-c2nc(-c3ccccc3)cs2)c1` [Compound 9e, 2-(3-Methoxyphenyl)-4-phenylthiazole]: the “QR1 induction activity in the mutant cell lines (in words)” value in assay [6] is listed as “not active”. Further, in [1], the EC (2-fold QR1 activity) was > 50 µM. Moreover, the “Inhibitory activity vs. iNOS (in words)” value in assay [8] is “weak”. Also, the “NF-κB inhibitory activity (in words)” value in the assay with NF-κB [9] was “low micromolar”. For `COc1cccc(-c2csc(-c3cccc(OC)c3F)n2)c1` [Compound 13a, 2-(2-Fluoro-3-methoxyphenyl)-4-(3-methoxyphenyl)thiazole], the EC (2-fold QR1 activity) in assay [1] is > 50 µM. Besides, in [7], the “QR1 induction activity (in words)” value was “inactive”. As to `COc1cccc(-c2csc(-c3cccc(Br)c3)n2)c1` [Compound 9w, 2-(3-Bromophenyl)-4-(3-methoxyphenyl)thiazole], in assay [1], the EC (2-fold QR1 activity) was > 50 µM. With `Cc1cc(Cl)ccc1-c1nc(-c2ccccc2)cs1` [Compound 9j, 2-(4-Chloro-2-methylphenyl)-4-phenylthiazole], in assay [6], the “Inducer class (monofunctional / bifunctional)” value is recorded as “monofunctional”. Regarding `Clc1ccc(Cl)c(-c2nc(-c3ccccc3)cs2)c1` [Compound 9g, 2-(2,5-Dichlorophenyl)-4-phenylthiazole], the “QR1 induction activity in the mutant cell lines (in words)” value in [6] is given as “active”.
